According to US4868158A, “Method for the production of a macromolecular carrier loaded with a biologically active substance” (Oncholab AB, priority 1985, dated 1989):

Test system: WEHI-3B cells, a murine monomyelocytic cell line
Settings: 1.0 million WEHI-3B cells i.p.; 1.9 mg AD-32/kg/day i.p. for five days
Experimental: Balb/C mice were injected intraperitonally (i.p.) with 1.0 million WEHI-3B cells, a murine monomyelocytic cell line. […] The AD-32 was administered i.p. dissolved in a mixture of ethanol and castor oil.

## CCCCC(=O)OCC(=O)C1(O)Cc2c(O)c3c(c(O)c2C(OC2CC(NC(=O)C(F)(F)F)C(O)C(C)O2)C1)C(=O)c1c(OC)cccc1C3=O (stereo not shown) [AD-32, N-trifluoroacetyladriamycin-14-valerate]
  ILS, Increased Life Span: 2%
